Experimental data reported in PMC12136037, “Type II kinase inhibitors that target Parkinson’s disease–associated LRRK2” (Science Advances, 2025).
“And” between values parts separate entries of the source, which are not always exact repeats. Equal entries are not always repeated.

Biological target: T1, LRRK2^RCKW (Homo sapiens, UniProt Q5S007)
T1 construct: LRRK2 R1327 to E2527; His6-Z-tag (TEV cleavable) (N, cleaved yes); host or cells: Sf9 insect cells (baculovirus)
T1 sequence (Q5S007 1327-2527): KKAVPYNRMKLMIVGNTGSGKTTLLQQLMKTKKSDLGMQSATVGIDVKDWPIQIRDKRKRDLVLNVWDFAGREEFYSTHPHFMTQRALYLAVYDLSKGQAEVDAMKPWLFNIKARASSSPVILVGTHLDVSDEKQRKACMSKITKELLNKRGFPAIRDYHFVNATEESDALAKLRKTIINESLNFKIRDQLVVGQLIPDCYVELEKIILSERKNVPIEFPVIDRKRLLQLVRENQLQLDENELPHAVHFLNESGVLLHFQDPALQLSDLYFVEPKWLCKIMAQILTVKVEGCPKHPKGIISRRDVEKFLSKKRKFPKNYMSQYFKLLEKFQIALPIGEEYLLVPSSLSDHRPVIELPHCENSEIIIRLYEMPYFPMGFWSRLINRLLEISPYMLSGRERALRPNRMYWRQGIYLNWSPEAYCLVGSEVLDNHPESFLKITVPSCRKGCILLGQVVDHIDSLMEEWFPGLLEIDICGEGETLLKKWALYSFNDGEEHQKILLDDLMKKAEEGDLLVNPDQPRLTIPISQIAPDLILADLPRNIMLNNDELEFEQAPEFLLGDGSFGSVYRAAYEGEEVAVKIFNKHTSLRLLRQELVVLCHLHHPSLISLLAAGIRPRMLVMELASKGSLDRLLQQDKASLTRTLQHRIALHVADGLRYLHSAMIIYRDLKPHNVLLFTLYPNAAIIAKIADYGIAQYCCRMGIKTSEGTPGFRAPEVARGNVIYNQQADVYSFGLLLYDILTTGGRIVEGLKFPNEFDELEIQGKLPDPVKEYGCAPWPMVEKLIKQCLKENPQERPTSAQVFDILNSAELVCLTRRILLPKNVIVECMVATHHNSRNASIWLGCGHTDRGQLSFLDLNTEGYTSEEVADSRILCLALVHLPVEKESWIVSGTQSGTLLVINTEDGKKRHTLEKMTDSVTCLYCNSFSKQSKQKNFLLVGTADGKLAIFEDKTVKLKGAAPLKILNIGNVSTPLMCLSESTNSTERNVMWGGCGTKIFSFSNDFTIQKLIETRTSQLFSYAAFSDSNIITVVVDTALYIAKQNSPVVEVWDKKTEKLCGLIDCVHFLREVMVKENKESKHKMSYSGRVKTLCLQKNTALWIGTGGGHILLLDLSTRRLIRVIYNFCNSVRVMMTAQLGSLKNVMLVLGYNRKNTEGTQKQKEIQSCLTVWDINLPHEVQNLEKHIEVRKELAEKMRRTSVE
Test: Single-molecule in vitro kinesin motility assay (TIRF) in the presence of LRRK2^RCKW
Assay type: biochemical
Conditions: for Raw data per microtubule (Figure 6c/6e, kinesin motility): individual microtubule values; for Mean each experiment (Figure 6c/6e raw data, kinesin motility): mean of each independent experiment; for rescue of kinesin motility in the presence of LRRK2^RCKW: MLi-2 5 μM, Ponatinib, RN277, RN341 10 μM
Method: The excitation and emission paths were filtered using appropriate single band-pass filter cubes (Chroma). […] Illumination and image acquisition was controlled by NIS Elements Advanced Research software (Nikon; www.microscope.healthcare.nikon.com/products/software/nis-elements/nis-elements-advanced-research, RRID:SCR_014329).
Single-molecule total internal reflection fluorescence (TIRF) motility experiments were performed in flow chambers using the microscopy setup described above. Flow chambers were made by adhering 1^1/2 thickness cover glass (Corning) to a SuperFrost Plus microscope slide (Electron Microscopy Sciences) with double sided tape. Before flow chamber assembly, cover glass was washed in 1 M HCl at 60°C for 1 hour and sonicated in 100% ethanol for 10 min to reduce nonspecific binding. […] In brief, flow chambers were functionalized by incubation with biotin-BSA (1 mg/ml; Sigma-Aldrich) for 3 min, followed by streptavidin (0.5 mg/ml) for a further 3 min. Taxol-stabilized microtubules were diluted 1:100 in motility assay buffer [30 mM Hepes (pH 7.4), 50 mM potassium acetate, 2 mM magnesium acetate, 1 mM EGTA, 10% glycerol, 1 mM DTT, and 20 μM Taxol] and incubated with the flow chamber for 3 min. Following incubation, the flow chambers with adhered microtubules were washed three times with LRRK2 buffer [20 mM Hepes (pH 7.4), 80 mM NaCl, 0.5 mM TCEP, 5% glycerol, 2.5 mM MgCl2, and 20 μM GDP] before incubation for 5 min with either LRRK2 buffer with DMSO or specified kinase inhibitors (0 nM LRRK2^RCKW) or LRRK2 buffer containing LRRK2^RCKW and DMSO or kinase inhibitors as indicated. In all cases, DMSO or the indicated kinase inhibitors were incubated with LRRK2 buffer in the presence or absence of LRRK2^RCKW for 10 min before addition and incubation within the flow chambers.
Data were blinded before analysis. Kymographs were generated from motility movies and quantified for percent motility using ImageJ V.2.14.0 as previously described ([22], [63]). Processive, diffusive, and nonmotile events were manually annotated for calculation of the percentage of processive events per microtubule. […] Single-molecule movements with multiple behaviors were counted as multiple events. For percentage motility per microtubule measurements, processive events were divided by total events (nonmotile, diffuse, and processive) per kymograph.
For statistical analysis, brightness and contrast were adjusted in ImageJ for all motility movies and kymographs. Statistical analyses were performed in GraphPad Prism 10 (www.graphpad.com/, RRID:SCR_002798). Specific statistical analysis descriptors, n values, and P values can be found in the corresponding figure legends. All TIRF experiments were analyzed from three independent technical replicates.

Row | Mean each experiment (Figure 6c/6e raw data, kinesin motility) (0nM RCKW, listed as RN277) | Mean each experiment (Figure 6c/6e raw data, kinesin motility) (100nM RCKW, listed as RN277) | SMILES | Raw data per microtubule (Figure 6c/6e, kinesin motility) (0nM RCKW) | Mean each experiment (Figure 6c/6e raw data, kinesin motility) (0nM RCKW) | Raw data per microtubule (Figure 6c/6e, kinesin motility) (100nM RCKW) | Mean each experiment (Figure 6c/6e raw data, kinesin motility) (100nM RCKW) | rescue of kinesin motility in the presence of LRRK2^RCKW | Raw data per microtubule (Figure 6c/6e, kinesin motility) (0nM RCKW, listed as RN277) | Raw data per microtubule (Figure 6c/6e, kinesin motility) (100nM RCKW, listed as RN277) | Raw data per microtubule (Figure 6c/6e, kinesin motility) (0nM RCKW, listed as RN341) | Mean each experiment (Figure 6c/6e raw data, kinesin motility) (0nM RCKW, listed as RN341) | Raw data per microtubule (Figure 6c/6e, kinesin motility) (100nM RCKW, listed as RN341) | Mean each experiment (Figure 6c/6e raw data, kinesin motility) (100nM RCKW, listed as RN341)
1 | – | – | Cc1ccc(C(=O)Nc2ccc(CN3CCN(C)CC3)c(C(F)(F)F)c2)cc1C#Cc1cnc2cccnn12 [Ponatinib, reference compound] | 83.3333 and 79.7203 and 85.1562 and 84.9462 and 85.9649 and 81.3725 | 82.4383 and 85.4556 and 82.3529 | 85.8491 and 82.7225 and 82.5758 and 84.8485 and 75 and 80.5556 | 82.6491 and 79.9242 and 83.2023 | rescued kinesin motility | – | – | – | – | – | –
2 | 80.5039 and 86.1765 and 85.4944 | 80.6738 and 80.7819 and 94.7927 | Cc1ccc(-n2nc(C(C)(C)C)cc2NC(=O)Nc2cccc(-c3c[nH]c4nc(Cl)nc(N5CCOCC5)c34)c2)cc1 [Compound 30] | – | – | – | – | rescued kinesin motility | 85.8824 and 78.125 and 82.8829 and 82.3529 and 90 and 85.1064 | 94.0299 and 83.3333 and 78.0142 and 83.1325 and 78.4314 and 95.5556 | – | – | – | –
3 | – | – | CCSc1nc(NC)c2c(-c3cccc(NC(=O)Nc4cc(C(C)(C)C)nn4-c4ccc(C)cc4)c3)c[nH]c2n1 [Compound 32] | – | – | – | – | rescued kinesin motility | – | – | 77.4648 and 83.4483 and 76.4045 and 86.4865 and 75.9259 and 86.2385 | 79.9264 and 81.2062 and 81.8517 | 76.0563 and 76.9912 and 82.5688 and 91.0891 and 75.8621 and 85.9155 | 79.78 and 83.4756 and 80.9859
